For 31 compounds, TGI and GI50 results are on record in PubChem BioAssay (NCI).

Experiment in all cases: DTP human tumour cell line panel, 48 h
The test system of assay [1] is NCI-H226 lung.
Assay [2] has as its system UACC-62 melanoma.
Assay [3] has as its system HT29 colon.
In assay [4] the test system is MDA-MB-231 breast.
Assay [5] has as its system MDA-N.
Assay [6] relates to OVCAR-3 ovarian.
Assay [7] has as its system SK-MEL-5 melanoma.
For assay [8], the system named is MCF7 breast.
Assay [9] concerns MALME-3M melanoma.
Assay [10] concerns A498 renal.

Broadly, the TGI is the concentration at which net growth stops. A higher TGI goes with lower sensitivity of the cells. As usually defined, the GI50 is the concentration that inhibits growth by half.

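Growth conditions: 96-well plates. Treatment: test compound, 48 hours, 5 concentrations. Analysis: linear interpolation between bracketing concentrations; unreached endpoints set to highest concentration. At the GI50, growth is halved. TGI denotes the concentration required for complete inhibition of growth.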 Peptide text beside a SMILES is read from it. * marks the point of attachment. OSu = O=C1CCC(=O)N1O*; OBn = c1ccc(CO*)cc1; Bn = c1ccc(C*)cc1

As to `Cc1nn(C(=O)c2ccc(Cl)cc2)c2c1C(c1ccco1)SC(N)=N2` (stereo not given), the TGI in assay [1], in [2], in [3], in [4], in assay [5] and in assay [6] was above 10 µM in each case. Besides, the TGI in [7] and in assay [8] was above 10 µM each time.
Turning to `Cc1cnc2[nH]c(-c3cccc(Cl)c3)cc(=O)c2c1`, the TGI is 87.3 µM in assay [1]; 63.5 µM in assay [2]; 1.46 µM in assay [4]; above 100 µM in [9]; above 100 µM in [10]; 0.0755 µM in assay [6]. The TGI in assay [7] was 16 µM; in [8] it was above 100 µM.
In the case of `COc1c(Cl)c(Cl)c(OC)c2c1C(=O)C=CC2=O`, the TGI is above 100 µM in assay [1]; 30.4 µM in [2]; 87.2 µM in assay [3]; 29.5 µM in [9]; above 100 µM in [10]; 31.6 µM in [6]. This compound also yielded a TGI in [7] above 100 µM.
For `Cc1ccc(C2(c3ccc(C)c(O)c3C)CCN(C)CC2)c(C)c1O`, the TGI in assay [1], in [2], in assay [3], in assay [4], in assay [9] and in assay [10] was above 100 µM throughout. Besides, the total growth inhibition concentration (TGI) in assay [5], in assay [6] and in assay [7] was above 100 µM in each case.
`O=C1OC(C(O)C(O)C(O)CO)C(O)C1O` (stereo not given): the TGI in assay [1], in assay [2], in [3], in assay [4], in assay [9] and in assay [10] was above 100 µM each time. Besides, the total growth inhibition concentration (TGI) in assay [6], in assay [7] and in assay [8] was above 100 µM each time.
On to `Clc1ccc(-c2nn3c(C45CC6CC(CC(C6)C4)C5)nnc3s2)cc1`, for which the TGI in [1], in assay [2], in assay [3], in assay [4], in assay [9] and in assay [10] was above 100 µM throughout. The concentration for total growth inhibition (TGI) in assay [6] and in assay [7] was above 100 µM in each case.
With `C/C(=N\n1c(Cc2ccccc2)n[nH]c1=O)c1ccc([N+](=O)[O-])cc1`, the TGI in assay [1], in assay [2], in assay [3], in assay [4], in [9] and in assay [5] was above 100 µM each time. In addition, the TGI in [6], in [7] and in assay [8] was above 100 µM throughout.
Take `CC(C)C[C@H](NC(=O)[C@H](CCc1ccccc1)NC(=O)c1ccc2ccccc2n1)B(O)O`: the concentration for total growth inhibition (TGI) is 0.367 µM in assay [1]; 1.2 µM in assay [2]; 0.144 µM in assay [3]; 0.305 µM in [4]; 4.38 µM in assay [10]; 0.0818 µM in [6]. The TGI came to 0.647 µM in assay [7] and 4.2 µM in [8].
As for `c1ccc2nn(C3CCCCO3)nc2c1` (stereo not given), the TGI in [1], in assay [2], in [3], in assay [4], in assay [9] and in assay [5] was above 100 µM throughout. Further, the concentration for total growth inhibition (TGI) in [6], in assay [7] and in assay [8] was above 100 µM in each case.
Turning to `COC(=O)c1ccccc1N=Cc1ccc(N(CCC#N)S(=O)(=O)c2ccccc2)cc1`, the TGI in assay [1], in [2], in assay [3], in [9], in [10] and in assay [6] was above 100 µM in each case. This compound also showed a TGI in assay [7] above 100 µM.
`C/C(=C/c1c(C)[nH]c(=O)[nH]c1=O)C(=O)O`: the TGI in assay [1] was above 1370 µM; in assay [2], above 1380 µM; in assay [3], above 1380 µM; in [9] it was above 1380 µM; in [10], above 1380 µM; in [6], above 1380 µM. For the same compound, the values for the TGI in assay [7] and in [8] were above 1370 µM and above 1380 µM, respectively.
As for `CC(C)(Oc1ccc(C(=O)c2ccc(Cl)cc2)cc1Cl)C(=O)N1CCN(c2ccccc2)CC1`, the TGI in assay [2], in assay [3], in assay [9], in assay [10], in assay [6] and in assay [7] was above 100 µM throughout.
In the case of `CC(CC(C)(C)[N+](C)(C)C)[N+](C)(C)C` (stereo not given), the TGI in assay [1], in assay [2], in assay [3], in assay [5], in [6] and in assay [7] was above 100 µM each time. The compound further returned a TGI in [8] above 100 µM.
Take `CC(=O)N1C(OCc2ccccc2)CCN1c1ccccc1` (stereo not given): the TGI in assay [1], in assay [3], in assay [4], in assay [9], in assay [5] and in [6] was above 10 µM in each case. Moreover, the TGI in assay [7] was above 10 µM.
As to `C=C(COC(=O)C(C)C)[C@H]1Oc2ccc(C(C)=O)cc2[C@@H]1OC(=O)C(C)C`, the TGI in [1], in [2], in assay [3], in assay [4], in assay [9] and in [5] was above 100 µM each time. The concentration for total growth inhibition (TGI) in [6], in assay [7] and in [8] was above 100 µM each time.
Regarding `COc1ccc(/C=C/C(c2cc(OC)c(OC)c(OC)c2)n2cncn2)cc1O` (stereo not given), the GI50 in [1] is 5.93 µM; in [2] it was 0.0476 µM; in [3], 3.68 µM; in [4], 3.02 µM; in [10], 3.13 µM; in [7] it was 0.0458 µM. Also, the GI50 in assay [8] is 0.033 µM. Moreover, the TGI is above 100 µM in [1]; above 100 µM in assay [2]; 17.2 µM in assay [3]; above 100 µM in [4]; 9.09 µM in assay [10]; 35.4 µM in assay [7]. For the same compound, the TGI in assay [8] was above 100 µM.
For `COc1ccc(N2C(=O)C3c4[nH]c5ccccc5c4C4CCC(C(C)(C)C)CC4C3C2=O)cc1OC` (stereo not given), the concentration for total growth inhibition (TGI) was 38.8 µM in [1]; above 100 µM in [2]; above 100 µM in assay [3]; above 100 µM in assay [9]; 41.4 µM in assay [10]; above 100 µM in assay [7].
Regarding `CCCN(CCC)c1c([N+](=O)[O-])cc(C(=O)N(C)C)cc1[N+](=O)[O-]`, the TGI in [3] was above 100 µM; in assay [9] it was above 100 µM; in [6], above 100 µM; in assay [7], 28.9 µM.
On to `Cc1csc2n(C)c(=O)c3ccccc3[n+]12`, for which the TGI in assay [1], in [2], in assay [3], in [4], in assay [5] and in [6] was above 100 µM throughout. In addition, the concentration for total growth inhibition (TGI) in assay [7] and in assay [8] was above 100 µM in each case.
For `CC(C)CC(NC(=O)C(N)CCC(=O)OCc1ccccc1)C(=O)NC(COCc1ccccc1)C(=O)NC(Cc1ccccc1)C(=O)ON1C(=O)CCC1=O` (stereo not given) (H-E(OBn)LS(Bn)F-OSu; configuration not given here), the TGI in assay [2] was 70 µM; in [3], above 100 µM; in assay [4], 40 µM; in [9] it was 96.1 µM; in assay [5] it was 47.6 µM; in assay [7], 35.8 µM. Also, the TGI in [8] was found to be 78.5 µM.
As for `NC(=S)N/N=C(\C(=O)Nc1ccc(Cl)c(Cl)c1)C1=NN(c2ccccc2)C(c2cccc([N+](=O)[O-])c2)CC1=O` (stereo not given), the TGI in assay [1] was 93.6 µM; in assay [2], above 100 µM; in assay [3], 34.8 µM; in [9], above 100 µM; in [10], above 100 µM; in assay [6], 51.4 µM. The same compound came in with a TGI in assay [7] above 100 µM.
As for `Cc1oc2c(C)c3oc(=O)cc(C)c3cc2c1CN`, the TGI in assay [1] is 91.2 µM; in assay [2], above 100 µM; in [3], above 100 µM; in [9] it was 86 µM; in [10], above 100 µM; in [6], above 100 µM.
On to `COc1cc(C)cc(OC)c1/C=C/C(=O)O`, for which the TGI in [1], in [2], in assay [3], in [4], in assay [9] and in assay [10] was above 100 µM each time. In addition, the TGI in assay [5] is above 100 µM; in assay [6] it was 87.6 µM; in [7], above 100 µM.
`Oc1ccccc1C=Nc1ccccc1N=Cc1ccccc1O`: the concentration for total growth inhibition (TGI) in [1], in assay [3], in assay [9], in assay [6] and in [7] was above 100 µM each time.
Take `Cc1nn(-c2ccccc2)c2c1N=C(C(=O)O)CC(c1ccccc1)=N2`: the TGI in [2], in assay [3], in assay [4], in [9], in assay [5] and in [6] was above 10 µM each time. Also, the TGI in assay [7] and in assay [8] was above 10 µM throughout.
For `COC1CCC(n2c([C@@H]3CCCC(=O)N3c3ccc(F)c(F)c3)nc3cc(-c4c(C)noc4C)ccc32)CC1` (stereo not given in full), the GI50 in assay [1] is 4.31 µM; in [2], 2.52 µM; in [3] it was 2.54 µM; in [4], 8.46 µM; in [9], 1.74 µM; in assay [10], 5.99 µM. For the same compound, the GI50 in assay [6] is 10.5 µM; in assay [7], 5.81 µM; in assay [8] it was 0.626 µM. The TGI is 19.7 µM in assay [1]; 16.1 µM in assay [2]; 25.2 µM in assay [3]; 26 µM in [4]; 17.7 µM in assay [9]; 20 µM in [10]. The TGI was 32.3 µM in [6], 18.6 µM in [7] and 15.1 µM in assay [8].
With `COc1cc(C(CC(OC)OC)=C(C#N)C#N)cc(OC)c1OC`, the TGI is 13.9 µM in assay [1]; above 100 µM in assay [2]; 73.4 µM in assay [3]; 76.9 µM in assay [9]; 40 µM in assay [10]; 73 µM in assay [6]. In assay [7], the TGI amounted to 49.2 µM.
Take `CCc1cc2c(oc3c4ccccc4ccc23)c(=O)[nH]1`: the TGI in [1], in assay [2], in [3], in [5], in [6] and in assay [8] was above 10 µM throughout.
Turning to `CCCCNCC(O)c1cc(-c2ccc(C(F)(F)F)cc2)nc(-c2ccc(C(F)(F)F)cc2)c1` (stereo not given), the GI50 in assay [2] is 1.89 µM; in assay [3], 1.84 µM; in assay [10] it was 1.38 µM; in [6] it was 1.98 µM; in assay [7], 1.77 µM; in [8], 1.79 µM. The TGI in assay [2] came to 3.67 µM; in [3], 3.62 µM; in assay [10] it was 2.86 µM; in assay [6] it was 3.66 µM; in assay [7] it was 3.26 µM; in assay [8], 3.54 µM.
Take `O=Cc1cc(O)c(O)c(/C=N/n2c3ccccc3c3ccccc32)c1`: the TGI in assay [1] is 33.2 µM; in assay [2], 22.9 µM; in [3], 48.1 µM; in assay [4], 30.2 µM; in assay [9], 30.8 µM; in assay [10], 49.8 µM. In addition, the values for the TGI in assay [6] and in assay [8] were 10.1 µM and 4.62 µM, respectively.
As for `Cc1ccc(Nc2ccc(Nc3ccc(C)cc3S(=O)(=O)O)c3c2C(=O)c2ccccc2C3=O)c(S(=O)(=O)O)c1`, the TGI in [1], in assay [2], in assay [9], in assay [10], in assay [6] and in assay [7] was above 100 µM each time.
